PubChem BioAssay AID1745844 (Carcinogenic Potency Database (CPDB), 2022)

Tested on: rodent lifetime carcinogenesis bioassay, tumor incidence TD50
Test: chronic cancer bioassays in animals – CPDB, compiled studies (AID 1745844)
Conditions: in drinking water

Cc1cc(-c2ccc(N)c(C)c2)ccc1N
TD50 (mouse, strain BALB/cStCrlfC3Hf/Nctr, females, site: lung, lesion: adenocarcinoma, dosed 52 weeks, study length 52 weeks): 147 mg/kg/day | TD50 (mouse, strain BALB/cStCrlfC3Hf/Nctr, females, site: lung, lesion: adenocarcinoma, dosed 78 weeks, study length 78 weeks): 168 mg/kg/day | TD50 (mouse, strain BALB/cStCrlfC3Hf/Nctr, females, site: lung, lesion: several types, types named in the paper, dosed 52 weeks, study length 52 weeks): 28.1 mg/kg/day | TD50 (mouse, strain BALB/cStCrlfC3Hf/Nctr, females, site: lung, lesion: several types, types named in the paper, dosed 78 weeks, study length 78 weeks): 295 mg/kg/day | TD50 (mouse, strain BALB/cStCrlfC3Hf/Nctr, males, site: lung, lesion: adenocarcinoma, dosed 52 weeks, study length 52 weeks): 123 mg/kg/day | TD50 (mouse, strain BALB/cStCrlfC3Hf/Nctr, males, site: lung, lesion: adenocarcinoma, dosed 112 weeks, study length 112 weeks): 50.1 mg/kg/day | TD50 (mouse, strain BALB/cStCrlfC3Hf/Nctr, males, site: lung, lesion: several types, types named in the paper, dosed 52 weeks, study length 52 weeks): 684 mg/kg/day | TD50 (mouse, strain BALB/cStCrlfC3Hf/Nctr, males, site: lung, lesion: several types, types named in the paper, dosed 78 weeks, study length 78 weeks): 423 mg/kg/day | TD50 (mouse, strain BALB/cStCrlfC3Hf/Nctr, males, site: lung, lesion: several types, types named in the paper, dosed 112 weeks, study length 112 weeks): 28.6 mg/kg/day | TD50 (rat, strain Fischer 344, females, site: Zymbal's gland, lesion: adenoma + adenoma, bilateral + carcinoma + carcinoma, bilateral, dosed 60 weeks, study length 60 weeks): 1.27 mg/kg/day | TD50 (rat, strain Fischer 344, females, site: Zymbal's gland, lesion: adenoma + adenoma, bilateral, dosed 60 weeks, study length 60 weeks): 3.08 mg/kg/day | TD50 (rat, strain Fischer 344, females, site: Zymbal's gland, lesion: carcinoma + carcinoma, bilateral, dosed 60 weeks, study length 60 weeks): 2 mg/kg/day | TD50 (rat, strain Fischer 344, females, site: all sites, lesion: mononuclear-cell leukemia, dosed 60 weeks, study length 60 weeks): 6.46 mg/kg/day | TD50 (rat, strain Fischer 344, females, site: any site (literature study), lesion: several types, types named in the paper, dosed 60 weeks, study length 60 weeks): 0.462 mg/kg/day | TD50 (rat, strain Fischer 344, females, site: brain, lesion: astrocytoma, malignant + malignant glioma + meningioma, malignant, dosed 60 weeks, study length 60 weeks): 15.4 mg/kg/day | TD50 (rat, strain Fischer 344, females, site: clitoral gland + colon + duodenum + ileum + jejunum + liver + lung + mammary gland + pharynx + rectum + skin + tongue + Zymbal's gland, lesion: adenoma + adenoma, bilateral + carcinoma + carcinoma, bilateral + adenocarcinoma + adenomatous polyp + mucinous adenocarcinoma + mucin, dosed 60 weeks, study length 60 weeks): 0.418 mg/kg/day | TD50 (rat, strain Fischer 344, females, site: clitoral gland, lesion: adenoma + adenoma, bilateral + carcinoma + carcinoma, bilateral, dosed 60 weeks, study length 60 weeks): 0.847 mg/kg/day | TD50 (rat, strain Fischer 344, females, site: clitoral gland, lesion: adenoma + adenoma, bilateral, dosed 60 weeks, study length 60 weeks): 1.31 mg/kg/day | TD50 (rat, strain Fischer 344, females, site: clitoral gland, lesion: carcinoma + carcinoma, bilateral, dosed 60 weeks, study length 60 weeks): 2.58 mg/kg/day | TD50 (rat, strain Fischer 344, females, site: colon + rectum, lesion: adenocarcinoma + adenomatous polyp, dosed 60 weeks, study length 60 weeks): 6.65 mg/kg/day | TD50 (rat, strain Fischer 344, females, site: colon + rectum, lesion: adenomatous polyp, dosed 60 weeks, study length 60 weeks): 7.11 mg/kg/day | TD50 (rat, strain Fischer 344, females, site: duodenum + ileum + jejunum, lesion: adenocarcinoma + adenomatous polyp + mucinous adenocarcinoma + mucinous cystadenocarcinoma, dosed 60 weeks, study length 60 weeks): 11 mg/kg/day | TD50 (rat, strain Fischer 344, females, site: duodenum + ileum + jejunum, lesion: adenocarcinoma + mucinous adenocarcinoma + mucinous cystadenocarcinoma, dosed 60 weeks, study length 60 weeks): 15.4 mg/kg/day | TD50 (rat, strain Fischer 344, females, site: liver, lesion: hepatocellular adenoma + hepatocellular carcinoma + neoplastic nodule, dosed 60 weeks, study length 60 weeks): 6.97 mg/kg/day | TD50 (rat, strain Fischer 344, females, site: liver, lesion: hepatocellular carcinoma + neoplastic nodule, dosed 60 weeks, study length 60 weeks): 6.97 mg/kg/day | TD50 (rat, strain Fischer 344, females, site: liver, lesion: neoplastic nodule, dosed 60 weeks, study length 60 weeks): 7.62 mg/kg/day | TD50 (rat, strain Fischer 344, females, site: lung, lesion: alveolar/bronchiolar adenoma + alveolar/bronchiolar carcinoma, dosed 60 weeks, study length 60 weeks): 11.9 mg/kg/day | TD50 (rat, strain Fischer 344, females, site: lung, lesion: alveolar/bronchiolar adenoma, dosed 60 weeks, study length 60 weeks): 13.6 mg/kg/day | TD50 (rat, strain Fischer 344, females, site: mammary gland, lesion: adenocarcinoma + fibroadenoma, dosed 60 weeks, study length 60 weeks): 5.77 mg/kg/day | TD50 (rat, strain Fischer 344, females, site: mammary gland, lesion: adenocarcinoma, dosed 60 weeks, study length 60 weeks): 8.33 mg/kg/day | TD50 (rat, strain Fischer 344, females, site: pharynx + tongue, lesion: squamous-cell carcinoma + squamous-cell papilloma, dosed 60 weeks, study length 60 weeks): 3.2 mg/kg/day | TD50 (rat, strain Fischer 344, females, site: pharynx + tongue, lesion: squamous-cell carcinoma, dosed 60 weeks, study length 60 weeks): 11.8 mg/kg/day | TD50 (rat, strain Fischer 344, females, site: pharynx + tongue, lesion: squamous-cell papilloma, dosed 60 weeks, study length 60 weeks): 4.26 mg/kg/day | TD50 (rat, strain Fischer 344, females, site: skin, lesion: basal-cell adenoma + basal-cell carcinoma, dosed 60 weeks, study length 60 weeks): 3.8 mg/kg/day | TD50 (rat, strain Fischer 344, females, site: skin, lesion: basal-cell adenoma, dosed 60 weeks, study length 60 weeks): 5.77 mg/kg/day
